Laboratory results reported in patent US20260345584A1, “METHODS AND PHARMACEUTICAL COMPOSITIONS FOR TREATING CHEMOTHERAPY-INDUCED PERIPHERAL NEUROPATHY WITH EG5 INHIBITORS” (UNIVERSITY OF MIAMI, priority 2023, published 2026).

Assays:
keratinocyte nuclei = assay: Nuclear volume and sphericity of keratinocytes; format: in vivo, zebrafish; details: 96 hr, keratinocytes with dfMTs
Experimental: Nuclear sphericity and volume were calculated in Imaris following 3D rendering of round keratinocyte nuclei using the Surface tool. First, background subtractions were performed, followed by automatic threshold detection. The threshold was adjusted if necessary to fit the nucleus. Thresholds were kept constant for comparisons.
It was expected that dfMTs should be in close proximity to the nucleus in order to activate Nox1 by mechanotransduction. To further confirm this expectation, high resolution imaging and 3D rendering of keratinocyte dfMTs and nuclei were used.

peripheral neuropathy = assay: von Frey behavioral testing; format: in vivo, mouse; details: mice, 2 mg/kg paclitaxel i.p. x4
Description: (§1) Molecular mechanisms underlying paclitaxel-induced microtubule fasciculation were then investigated. […] Peripheral neuropathy was correlated with these times points using von Frey behavioral testing, which determined that peak neuropathy was present at day 7 (D7). This identified several biological categories during peak neuropathy with the largest clusters being implicated in extracellular matrix organization (e.g. “ECM”, “collagen-containing ECM”, “collagen trimer”) and cell cycle regulation (e.g. “outer kinetochore”, “kinesin complex”, condensed chromosome, centromeric region”, “mitotic spindle”, “microtubules”), consistent with our findings in zebrafish. Interactome analysis using STRING (Szklarczyk et al., 2021, Nucl. Acids Res 49: D605-D612) to predict protein association networks further identified major clusters involved in cell cycle regulation, which contained various kinesins, microtubule and nucleus regulators, as well as one cluster annotated as “disulfide bond”, consistent with a role for oxidative signal activation (Leonard et al., 2011, Current opinion in chemical biology 15: 88-102) (shown in FIG. 3D).

[1] = system: microtubule acetylation in keratinocytes; assay: Keratinocyte microtubule acetylation (K40); format: in vivo, zebrafish; details: 22 μM paclitaxel, 96 hr, with and without EMD534085
Experimental: Larval fish were transferred into […] glass vials and fixed in 4% paraformaldehyde (PFA)/1× Phosphate-buffered saline (PBS) for 1.5 hr at room temperature, with gentle rocking. Following a 5-minute incubation in 1×PBS+0.1% Tween-20 (PBST), zebrafish were permeabilized in 1×PBS+0.1% Triton X-100 for 10-30 min. Larval fish were transferred into 2 ml reaction tubes and incubated in blocking buffer (1×PBST+5% BSA) for 30 min at room temperature, with rocking. Larval fish were further incubated overnight in antibody solution (Millipore Sigma, Cat. No. AB3201, 1:300 rabbit anti-GluTub; Sigma, Cat No. T6793, 1:500 mouse anti-acetylated tubulin) in blocking buffer at 4 °C, on a rotator. The next morning, larval fish were transferred into 6-well plates and washed 4×15 min in 1×PBST at room temperature, with rocking. This was followed by incubation in secondary antibody (goat anti-rabbit Cy5, Abcam, Cat. No. ab97077; goat anti-mouse Cy3, Abcam, Cat. No. ab97035) and 1:10,000 Hoechst 33342 (ThermoFisher Scientific, Cat. No. 62249, 20 mM solution) in blocking buffer for 1 hr at room temperature, with rocking. Fish were covered to avoid bleaching. […]

Eg5 = Eg5 immunofluorescence in zebrafish caudal fin; format: in vivo; details: 22 μM paclitaxel, 96 hr
Experimental: The stock solution was divided into 20-30 μl aliquots and stored at −20 °C until use (maximal 6 months). Immediately prior to use, paclitaxel was diluted in Ringer's solution and added to dechorionated larval zebrafish. The larval fish were placed individually or in small groups into wells of a 12-well plate containing the treatment solutions. The control group was 0.05% DMSO. Plates were incubated at 28.5 °C and protected from light. Treatment lengths are indicated in the Drawings, Description of the Drawings, and Examples where appropriate. […] EMD534085, Eg5 inhibitor (MedChemExpress, Cat. No. HY-15000) was diluted in 100% DMSO to make a 10 mM stock solution and stored at −20 °C. […] The solutions were exchanged every 48 hr.
Larval fish were transferred into […] glass vials and fixed in 4% paraformaldehyde (PFA)/1× Phosphate-buffered saline (PBS) for 1.5 hr at room temperature, with gentle rocking. Following a 5-minute incubation in 1×PBS+0.1% Tween-20 (PBST), zebrafish were permeabilized in 1×PBS+0.1% Triton X-100 for 10-30 min. Larval fish were transferred into 2 ml reaction tubes and incubated in blocking buffer (1×PBST+5% BSA) for 30 min at room temperature, with rocking. […]

skin gene expression = assay: Mouse skin RNAseq; format: in vivo; details: mice, 2 mg/kg paclitaxel i.p. x4
Experimental: The RNAseq data set was published in Cirrincione et al. (2022, Data 7: 72). Following differential gene expression analysis (FDR<0.01) comparing paclitaxel-treated to vehicle control animals (n=4), identified genes were queried in gProfiler and grouped by their molecular function. Using normalized gene counts, Kif genes were analyzed for their expression and plotted over time. […] Kif11 was queried in STRING to identify associated networks and interacting proteins compared to the RNAseq data set and differentially expressed genes were graphed in Prism 9.
as §1

- day of peak neuropathy (peripheral neuropathy): 7 days
Structure (SMILES): CC(=O)O[C@H]1C(=O)[C@@]2(C)[C@H]([C@H](OC(=O)c3ccccc3)[C@]3(O)C[C@H](OC(=O)[C@H](O)[C@@H](NC(=O)c4ccccc4)c4ccccc4)C(C)=C1C3(C)C)[C@]1(OC(C)=O)CO[C@@H]1C[C@@H]2O [paclitaxel]
- nuclear volume (keratinocyte nuclei; 22 μM paclitaxel): 582±83.18 μm3
- nuclear sphericity (1=spherical vs. 0=nonspherical) (keratinocyte nuclei; paclitaxel): 0.23±0.01
- keratinocyte microtubule acetylation [1]: an increase in keratinocyte microtubule acetylation after 96 hr paclitaxel treatment with and without EMD534085
- Eg5 localization/induction (Eg5): promoted Eg5 puncta formation
- expression of Cdk1, Aurka, Aurkb and Kif11 (skin gene expression): upregulated during peak neuropathy
- expression of Cyba and Cybb (skin gene expression): upregulated at D23
- expression of checkpoint regulators Plk1, Cdc20, Ndc80, Bub1c, Dlgap5 (skin gene expression): co-upregulation from D7 onward
